Drawing on ChEMBL document CHEMBL1136617, “Cyclic amidines as benzamide bioisosteres: EPC synthesis and SAR studies leading to the selective dopamine D4 receptor agonist FAUC 312” (Bioorg Med Chem Lett, 2003), this text covers Stimulation, Ki and EC50 for nine compounds.

Assay [1] deals with T1, D(4) dopamine receptor (Homo sapiens) (UniProt P21917).
T1 sequence (whole entry): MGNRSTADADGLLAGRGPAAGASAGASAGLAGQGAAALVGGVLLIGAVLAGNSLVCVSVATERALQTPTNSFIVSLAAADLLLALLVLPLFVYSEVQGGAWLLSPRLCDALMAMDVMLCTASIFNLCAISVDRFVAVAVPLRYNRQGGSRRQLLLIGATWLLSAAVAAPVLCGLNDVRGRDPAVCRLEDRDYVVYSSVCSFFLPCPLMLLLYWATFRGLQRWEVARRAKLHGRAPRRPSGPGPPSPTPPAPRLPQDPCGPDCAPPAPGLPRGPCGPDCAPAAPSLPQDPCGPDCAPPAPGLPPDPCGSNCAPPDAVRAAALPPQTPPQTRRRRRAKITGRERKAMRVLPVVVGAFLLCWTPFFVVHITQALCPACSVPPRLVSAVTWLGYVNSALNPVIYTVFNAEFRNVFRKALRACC
Description: In vitro functional assay measuring the [3H]thymidine uptake in growing CHO cells stably expressing the dopamine D4.2 receptor was performed. Format: cell-based.

Assay [2] concerns the target T2, D(2) dopamine receptor (Homo sapiens, UniProt P14416). Kind of assay: biochemical. The assay is classed as cell-based, CHO.
In assay [3] the target is T3, D(3) dopamine receptor (Homo sapiens, UniProt P35462). Description: biochemical.
T3 sequence (P35462 whole entry): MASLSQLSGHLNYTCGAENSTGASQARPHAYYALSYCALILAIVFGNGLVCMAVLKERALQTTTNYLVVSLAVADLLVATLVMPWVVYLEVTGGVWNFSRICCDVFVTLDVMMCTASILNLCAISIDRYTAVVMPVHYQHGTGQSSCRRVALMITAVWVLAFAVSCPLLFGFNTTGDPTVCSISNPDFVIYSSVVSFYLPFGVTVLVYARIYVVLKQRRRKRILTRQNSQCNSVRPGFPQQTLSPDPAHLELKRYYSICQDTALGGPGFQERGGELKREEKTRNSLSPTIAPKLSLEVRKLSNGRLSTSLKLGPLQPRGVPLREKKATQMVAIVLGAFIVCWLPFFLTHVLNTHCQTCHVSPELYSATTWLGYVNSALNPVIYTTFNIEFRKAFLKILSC
For assay [4], the target named is T2, D(2) dopamine receptor. Kind of assay: biochemical. Format: cell-based, CHO. The source holds these as a separate data set.
Description: In vitro binding affinity to displace [3H]-spiperone from the cloned human dopamine receptor D2 short in CHO cells
Another assay addresses D(1A) dopamine receptor (Bos taurus, UniProt Q95136). Description: In vitro Binding affinity towards dopamine D1 receptor using bovine striatal membrane preparations and antagonist [3H]-SCH- 23390. On the set-up: species or system Striatum.
Assay [5] has as its target T4, D(4) dopamine receptor (Homo sapiens, UniProt P21917).
T4 sequence (P21917 whole entry): T1 sequence (whole entry)
Description: biochemical. The assay is classed as cell-based, CHO.
Description: In vitro binding affinity to displace [3H]spiperone from the cloned human dopamine receptor D4 in CHO cells

Assay [6] concerns the target T4, D(4) dopamine receptor. Description: Effective concentration for [3H]thymidine uptake in growing CHO cells stably expressing the dopamine D4.2 receptor. Format: cell-based.
Assay [7] concerns the target T2, D(2) dopamine receptor. Kind of assay: In vitro ability to displace [3H]spiperone from the cloned human dopamine D2 long receptor expressed in CHO cells. Format: cell-based.
The target of assay [8] is T3, D(3) dopamine receptor. Kind of assay: In vitro ability to displace [3H]spiperone from cloned human dopamine D3 receptor expressed in CHO cells. Format: cell-based.
The target of assay [9] is T2, D(2) dopamine receptor. Description: In vitro ability to displace [3H]spiperone from the cloned human dopamine D2 short receptor expressed in CHO cells. The assay is classed as cell-based.
The target of assay [10] is T4, D(4) dopamine receptor. Kind of assay: In vitro ability to displace [3H]spiperone from the cloned human dopamine D4 receptor expressed in CHO cells. Format: cell-based.
Assay [11] concerns the target T2, D(2) dopamine receptor. Description: In vitro binding affinity to displace [3H]spiperone from the cloned human dopamine receptor D2 short in CHO cells. Format: cell-based.
The target in assay [12] is T3, D(3) dopamine receptor. Kind of assay: In vitro binding affinity to displace [3H]spiperone from the cloned human dopamine receptor D3 in CHO cells. Format: cell-based.
For assay [13], the target named is T2, D(2) dopamine receptor. Kind of assay: In vitro binding affinity to displace [3H]spiperone from the cloned human dopamine receptor D2 long in CHO cells. Format: cell-based.
The target in assay [14] is T4, D(4) dopamine receptor. Description: In vitro binding affinity to displace [3H]-spiperone from the cloned human dopamine receptor D4 in CHO cells. The assay is classed as cell-based.

T2 sequence (P14416 whole entry): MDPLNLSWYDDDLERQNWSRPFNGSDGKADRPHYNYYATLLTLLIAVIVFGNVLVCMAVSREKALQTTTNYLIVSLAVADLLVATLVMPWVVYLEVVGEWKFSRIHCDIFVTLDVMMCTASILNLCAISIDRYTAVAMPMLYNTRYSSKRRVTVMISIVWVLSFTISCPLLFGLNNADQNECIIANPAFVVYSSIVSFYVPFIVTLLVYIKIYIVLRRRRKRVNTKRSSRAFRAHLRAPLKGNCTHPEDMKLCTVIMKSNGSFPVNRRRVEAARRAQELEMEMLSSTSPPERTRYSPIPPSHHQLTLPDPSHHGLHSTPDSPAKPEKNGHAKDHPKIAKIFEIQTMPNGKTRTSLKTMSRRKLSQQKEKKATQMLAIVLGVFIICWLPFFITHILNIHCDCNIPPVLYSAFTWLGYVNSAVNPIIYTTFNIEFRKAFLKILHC
D(1A) dopamine receptor, sequence (Q95136 whole entry): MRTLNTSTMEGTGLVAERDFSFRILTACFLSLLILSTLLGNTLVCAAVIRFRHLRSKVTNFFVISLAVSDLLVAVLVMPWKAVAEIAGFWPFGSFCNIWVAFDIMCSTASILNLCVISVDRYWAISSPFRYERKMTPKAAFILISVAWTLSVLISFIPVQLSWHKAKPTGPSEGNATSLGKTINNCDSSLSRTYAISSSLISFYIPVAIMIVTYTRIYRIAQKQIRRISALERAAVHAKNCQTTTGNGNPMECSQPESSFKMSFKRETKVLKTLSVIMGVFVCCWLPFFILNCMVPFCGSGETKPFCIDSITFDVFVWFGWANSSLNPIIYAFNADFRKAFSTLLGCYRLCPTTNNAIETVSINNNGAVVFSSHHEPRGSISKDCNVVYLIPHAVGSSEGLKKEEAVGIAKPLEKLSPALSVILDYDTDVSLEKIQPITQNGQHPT

`c1ccc(C2=NCC[C@H](CN3CCN(c4ccccc4)CC3)N2)cc1` returned a Stimulation in assay [1] of 83%.

`O=C1C[C@H](CN2CCN(c3ccccc3)CC2)N=C(c2ccccc2)N1`: the Ki came to 7.3 µM at D(2) dopamine receptor [2]; 12 µM at D(3) dopamine receptor [3]; 2.8 µM on D(2) dopamine receptor [4]; 19 µM at D(1A) dopamine receptor; 0.46 µM at D(4) dopamine receptor [5].

Regarding `c1ccc(C2=N[C@@H](CN3CCN(c4ccccc4)CC3)CCN2)cc1`, the EC50 on D(4) dopamine receptor [6] is 0.05 µM. For the same compound, the Ki is 25 µM at D(2) dopamine receptor [7]; 13 µM on D(3) dopamine receptor [8]; 29 µM at D(1A) dopamine receptor; 32 µM at D(2) dopamine receptor [9]; 0.0015 µM at D(4) dopamine receptor [10].

Regarding `c1ccc(C2=NC[C@H](N3CCN(c4ccccc4)CC3)CCN2)cc1`, the Ki was 10 µM on D(2) dopamine receptor [2]; 12 µM on D(3) dopamine receptor [3]; 4.2 µM on D(2) dopamine receptor [4]; 23 µM on D(1A) dopamine receptor; 0.12 µM on D(4) dopamine receptor [5].

Consider `COc1ccc(Br)cc1C1=NCC[C@@H](CN2CCN(c3ccccc3)CC2)N1`, for which the inhibition constant (Ki) at D(2) dopamine receptor [2] was found to be 16 µM; on D(3) dopamine receptor [3] it was 1.9 µM; on D(2) dopamine receptor [4], 14 µM; at D(1A) dopamine receptor, 9.1 µM; at D(4) dopamine receptor [5], 3.5 µM.

For the compound `c1ccc(C2=NCC(N3CCN(c4ccccc4)CC3)CCN2)cc1` (single isomer, unassigned), the Ki stood at 19 µM at D(2) dopamine receptor [2]; 3.3 µM on D(3) dopamine receptor [3]; 14 µM on D(2) dopamine receptor [4]; 23 µM at D(1A) dopamine receptor; 4.4 µM on D(4) dopamine receptor [5].

Consider `O=C1C[C@@H](CN2CCN(c3ccccc3)CC2)N=C(c2ccccc2)N1`, for which the Ki at D(2) dopamine receptor [2] stood at 18 µM; on D(3) dopamine receptor [3], 20 µM; at D(2) dopamine receptor [4], 6.4 µM; on D(1A) dopamine receptor it was 8.9 µM; at D(4) dopamine receptor [5] it was 3.7 µM.

With `c1ccc(C2=NCC[C@@H](CN3CCN(c4ccccc4)CC3)N2)cc1`, the Ki worked out at 39 µM on D(1A) dopamine receptor; 30 µM on D(2) dopamine receptor [11]; 13 µM at D(3) dopamine receptor [12]; 29 µM at D(2) dopamine receptor [13]; 0.31 µM at D(4) dopamine receptor [14].

Consider `COc1ccc(Br)cc1C1=NCC[C@H](CN2CCN(c3ccccc3)CC2)N1`, for which the Ki at D(2) dopamine receptor [2] turned out to be 44 µM; at D(3) dopamine receptor [3], 7.4 µM; at D(2) dopamine receptor [4], 43 µM; on D(1A) dopamine receptor, 15 µM; at D(4) dopamine receptor [5], 1.6 µM.

As usually defined, the Ki is the equilibrium dissociation constant of an inhibitor or competing ligand from its target. The low end stands for higher affinity, the high end for lower affinity. What is called EC50 is the midpoint of the concentration-response curve.
